Columns and labels:
[1] = test system: Radical scavenging activity; assay: Antioxidant activity assessed as DPPH free radical scavenging activity at 0.1 mM after 20 mins; type: functional
[2] = Antioxidant activity assessed as inhibition of xanthine-xanthine oxidase generated superoxide anion radical production at 100 uM by nitroblue tetrazolium method; type: functional; set-up: scale not given: the % may be the effect or the level left
[3] = test system: Radical scavenging activity; assay: Antioxidant activity assessed as DPPH free radical scavenging activity at 0.1 mM after 60 mins; type: functional
[4] = Antioxidant activity assessed as inhibition of lipid peroxidation at 100 uM; type: functional; set-up: scale not given: the % may be the effect or the level left
[5] = Inhibition of soybean lipoxygenase; set-up: species or system Glycine max
[6] = test system: Radical scavenging activity; assay: Antioxidant activity assessed as DPPH free radical scavenging activity at 0.05 mM after 20 mins; type: functional
[7] = test system: Radical scavenging activity; assay: Antioxidant activity assessed as DPPH free radical scavenging activity at 0.05 mM after 60 mins; type: functional

IC50 [5] [µM] | Compound | Activity [1] [%] | Activity [2] [%] | Activity [3] [%] | Activity [4] [%] | Activity [6] [%] | Activity [7] [%]
100 | Cc1cc(C)c(C2=NOC(Cn3cnc4c(N5CCOCC5)ncnc43)C2)c(C)c1 (stereo not given) | 4 | 1 | 4 | 81 | – | –
– | Cc1c(C)c2c(c(C)c1O)CCC(C)(C(=O)O)O2 (stereo not given) | – | – | – | 73 | – | –
– | CC(Cc1ccc(O)c(O)c1)C(C)Cc1ccc(O)c(O)c1 (stereo not given) | 81 | – | 83 | – | 68 | 72
– | O=C(O)/C=C/c1ccc(O)c(O)c1 | – | 10 | – | – | – | –
100 | Cc1cc(C)c(C2=NOC(Cn3cnc4c(N5CCCC5)ncnc43)C2)c(C)c1 (stereo not given) | – | – | – | 52 | 11 | 11

Reference: ChEMBL document CHEMBL1154338, “Synthesis of modified homo-N-nucleosides from the reactions of mesityl nitrile oxide with 9-allylpurines and their influence on lipid peroxidation and thrombin inhibition” (Bioorg Med Chem Lett, 2009)
